Reference: patent US7317034B2, “Substituted C-furan-2-yl-methylamine and C-thiophen-2-yl-methylamine compounds” (Gruenenthal GmbH, priority 2001, dated 2008)

System: binding site 2 of the sodium channel (BTX binding site)
Experiment: Binding to the sodium channel, binding site 2 (BTX binding), [3H]-batrachotoxinin A20 α-benzoate displacement
Settings: rat cerebrocortex synaptosomes; for BTX binding (10 μM): 10 μM test compound, ligand [3H]-batrachotoxinin A20 α-benzoate 10 nM, 120 min at 25° C.

5-[1-(2-Chloro-phenylamino)-2-oxo-2-phenyl-ethyl]-2-methyl-furan-3-carboxylic acid ethyl ester
BTX binding (10 μM): 40%

CCOC(=O)c1cc(C(Nc2ccc(Cl)cc2C)C(=O)c2ccccc2)oc1C (centres unmarked) [D, 5-[1-(4-Chloro-2-methyl-phenylamino)-2-oxo-2-phenyl-ethyl]-2-methyl-furan-3-carboxylic acid ethyl ester]
BTX binding (10 μM): 37%

COC(=O)c1cc(C(Nc2ccc(Cl)cc2F)C(=O)c2ccccc2)oc1C (centres unmarked) [C, 5-[1-(4-Chloro-2-fluoro-phenylamino)-2-oxo-2-phenyl-ethyl]-2-methyl-furan-3-carboxylic acid methyl ester]
BTX binding (10 μM): 57%

COC(=O)c1cc(C(Nc2ccc(Cl)cc2C)C(=O)c2ccccc2)oc1C (centres unmarked) [Example B, 5-[1-(4-Chloro-2-methyl-phenylamino)-2-oxo-2-phenyl-ethyl]-2-methyl-furan-3-carboxylic acid methyl ester]
BTX binding (10 μM): 55%

[3H]-batrachotoxinin A20 α-benzoate [reference compound]
Kd (radioligand [3H]-batrachotoxinin A20 α-benzoate, N=2, mean±SEM, read-out: KD value for that binding site): 24.6 ± 1.56 nM
